{
  "source": "PubChem BioAssay AID2060888",
  "about": "(Molecular Pharmacology Branch, DTP, NCI, 2025)",
  "system": "695427-040-R-J1-PDC complex spheroid viability",
  "test": "Anticancer human tumor 695427-040-R-J1-PDC patient-derived colon adenocarcinoma cell line growth inhibition [RAS]",
  "conditions": "for IC50: curve of first compound; for viability, T/C: stronger effect = lower value",
  "method_in_brief": "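Multi-cell-type spheroids: tumor cells plus HUVEC endothelial cells and mesenchymal stem cells. RAS-pathway inhibitors were combined with targeted agents, each dosed in half-log steps down from clinical Cmax, or from 10 microM when Cmax was unknown.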",
  "data": [
    {"compound": "C=CC(=O)N1CCN(c2nc(OCC3CCCN3C)nc3c(F)c(-c4nc(N)cc(C)c4C(F)(F)F)c(Cl)cc23)C(C)C1", "note": "(centres undefined) + CCn1c(-c2cc(N3CCN(C)CC3)cnc2C(C)OC)c2c3cc(ccc31)-c1csc(n1)CC(NC(=O)C1CC1C)C(=O)N1CCCC(N1)C(=O)OCC(C)(C)C2;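 also: viability read after seven days of drug exposure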;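 as to viability, T/C: 100% = DMSO vehicle control viability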", "values": [
      {"measurement": "IC50", "setting": "second compound 0.000949 µM", "value": "> 1000", "unit": "nM"},
      {"measurement": "IC50", "setting": "second compound 0.003 µM", "value": "> 1000", "unit": "nM"},
      {"measurement": "IC50", "setting": "second compound 0.00949 µM", "value": "> 1000", "unit": "nM"},
      {"measurement": "IC50", "setting": "second compound 0.03 µM", "value": "> 1000", "unit": "nM"},
      {"measurement": "IC50", "setting": "second compound 0.0949 µM", "value": "< 3.16", "unit": "nM"},
      {"measurement": "IC50", "setting": "second compound 0.3 µM", "value": "< 3.16", "unit": "nM"},
      {"measurement": "viability, T/C", "setting": "second compound 0.000949 µM, first compound 0.00316 µM", "value": 91.6, "unit": "%"},
      {"measurement": "viability, T/C", "setting": "second compound 0.000949 µM, first compound 0.01 µM", "value": 115, "unit": "%"},
      {"measurement": "viability, T/C", "setting": "second compound 0.000949 µM, first compound 0.0316 µM", "value": 99.4, "unit": "%"},
      {"measurement": "viability, T/C", "setting": "second compound 0.000949 µM, first compound 0.1 µM", "value": 94.1, "unit": "%"},
      {"measurement": "viability, T/C", "setting": "second compound 0.000949 µM, first compound 0.316 µM", "value": 110, "unit": "%"},
      {"measurement": "viability, T/C", "setting": "second compound 0.000949 µM, first compound 1 µM", "value": 90, "unit": "%"},
      {"measurement": "viability, T/C", "setting": "second compound 0.003 µM, first compound 0.00316 µM", "value": 92.3, "unit": "%"},
      {"measurement": "viability, T/C", "setting": "second compound 0.003 µM, first compound 0.01 µM", "value": 99.9, "unit": "%"},
      {"measurement": "viability, T/C", "setting": "second compound 0.003 µM, first compound 0.0316 µM", "value": 85.7, "unit": "%"},
      {"measurement": "viability, T/C", "setting": "second compound 0.003 µM, first compound 0.1 µM", "value": 85, "unit": "%"},
      {"measurement": "viability, T/C", "setting": "second compound 0.003 µM, first compound 0.316 µM", "value": 98.9, "unit": "%"},
      {"measurement": "viability, T/C", "setting": "second compound 0.003 µM, first compound 1 µM", "value": 85.5, "unit": "%"},
      {"measurement": "viability, T/C", "setting": "second compound 0.00949 µM, first compound 0.00316 µM", "value": 94, "unit": "%"},
      {"measurement": "viability, T/C", "setting": "second compound 0.00949 µM, first compound 0.01 µM", "value": 69.2, "unit": "%"},
      {"measurement": "viability, T/C", "setting": "second compound 0.00949 µM, first compound 0.0316 µM", "value": 81.2, "unit": "%"},
      {"measurement": "viability, T/C", "setting": "second compound 0.00949 µM, first compound 0.1 µM", "value": 75.3, "unit": "%"},
      {"measurement": "viability, T/C", "setting": "second compound 0.00949 µM, first compound 0.316 µM", "value": 76.4, "unit": "%"},
      {"measurement": "viability, T/C", "setting": "second compound 0.00949 µM, first compound 1 µM", "value": 69.1, "unit": "%"},
      {"measurement": "viability, T/C", "setting": "second compound 0.03 µM, first compound 0.00316 µM", "value": 69.5, "unit": "%"},
      {"measurement": "viability, T/C", "setting": "second compound 0.03 µM, first compound 0.01 µM", "value": 63.7, "unit": "%"},
      {"measurement": "viability, T/C", "setting": "second compound 0.03 µM, first compound 0.0316 µM", "value": 57, "unit": "%"},
      {"measurement": "viability, T/C", "setting": "second compound 0.03 µM, first compound 0.1 µM", "value": 55.5, "unit": "%"},
      {"measurement": "viability, T/C", "setting": "second compound 0.03 µM, first compound 0.316 µM", "value": 56.3, "unit": "%"},
      {"measurement": "viability, T/C", "setting": "second compound 0.03 µM, first compound 1 µM", "value": 59, "unit": "%"},
      {"measurement": "viability, T/C", "setting": "second compound 0.0949 µM, first compound 0.00316 µM", "value": 52.3, "unit": "%"},
      {"measurement": "viability, T/C", "setting": "second compound 0.0949 µM, first compound 0.01 µM", "value": 47.7, "unit": "%"},
      {"measurement": "viability, T/C", "setting": "second compound 0.0949 µM, first compound 0.0316 µM", "value": 42.3, "unit": "%"},
      {"measurement": "viability, T/C", "setting": "second compound 0.0949 µM, first compound 0.1 µM", "value": 42.8, "unit": "%"},
      {"measurement": "viability, T/C", "setting": "second compound 0.0949 µM, first compound 0.316 µM", "value": 47.1, "unit": "%"},
      {"measurement": "viability, T/C", "setting": "second compound 0.0949 µM, first compound 1 µM", "value": 45.1, "unit": "%"},
      {"measurement": "viability, T/C", "setting": "second compound 0.3 µM, first compound 0.00316 µM", "value": 39.2, "unit": "%"},
      {"measurement": "viability, T/C", "setting": "second compound 0.3 µM, first compound 0.01 µM", "value": 34.7, "unit": "%"},
      {"measurement": "viability, T/C", "setting": "second compound 0.3 µM, first compound 0.0316 µM", "value": 42.7, "unit": "%"},
      {"measurement": "viability, T/C", "setting": "second compound 0.3 µM, first compound 0.1 µM", "value": 38, "unit": "%"},
      {"measurement": "viability, T/C", "setting": "second compound 0.3 µM, first compound 0.316 µM", "value": 36.8, "unit": "%"},
      {"measurement": "viability, T/C", "setting": "second compound 0.3 µM, first compound 1 µM", "value": 37.1, "unit": "%"}
    ]},
    {"compound": "CCc1c2c(nc3ccc(O)cc13)-c1cc3c(c(=O)n1C2)COC(=O)[C@]3(O)CC", "note": "+ C=CC(=O)N1CCN(c2nc(OCC3CCCN3C)nc3c(F)c(-c4nc(N)cc(C)c4C(F)(F)F)c(Cl)cc23)C(C)C1", "values": [
      {"measurement": "IC50", "setting": "second compound 0.00316 µM", "value": 112, "unit": "nM"},
      {"measurement": "IC50", "setting": "second compound 0.01 µM", "value": 123, "unit": "nM"},
      {"measurement": "IC50", "setting": "second compound 0.0316 µM", "value": 129, "unit": "nM"},
      {"measurement": "IC50", "setting": "second compound 0.1 µM", "value": 128, "unit": "nM"},
      {"measurement": "IC50", "setting": "second compound 0.316 µM", "value": 144, "unit": "nM"},
      {"measurement": "IC50", "setting": "second compound 1 µM", "value": 162, "unit": "nM"},
      {"measurement": "viability, T/C", "setting": "second compound 0.00316 µM, first compound 0.000949 µM", "value": 88, "unit": "%"},
      {"measurement": "viability, T/C", "setting": "second compound 0.00316 µM, first compound 0.003 µM", "value": 88.2, "unit": "%"},
      {"measurement": "viability, T/C", "setting": "second compound 0.00316 µM, first compound 0.00949 µM", "value": 84.8, "unit": "%"},
      {"measurement": "viability, T/C", "setting": "second compound 0.00316 µM, first compound 0.03 µM", "value": 74.5, "unit": "%"},
      {"measurement": "viability, T/C", "setting": "second compound 0.00316 µM, first compound 0.0949 µM", "value": 54.3, "unit": "%"},
      {"measurement": "viability, T/C", "setting": "second compound 0.00316 µM, first compound 0.3 µM", "value": 25.5, "unit": "%"},
      {"measurement": "viability, T/C", "setting": "second compound 0.01 µM, first compound 0.000949 µM", "value": 98.8, "unit": "%"},
      {"measurement": "viability, T/C", "setting": "second compound 0.01 µM, first compound 0.003 µM", "value": 92.1, "unit": "%"},
      {"measurement": "viability, T/C", "setting": "second compound 0.01 µM, first compound 0.00949 µM", "value": 78.7, "unit": "%"},
      {"measurement": "viability, T/C", "setting": "second compound 0.01 µM, first compound 0.03 µM", "value": 72.9, "unit": "%"},
      {"measurement": "viability, T/C", "setting": "second compound 0.01 µM, first compound 0.0949 µM", "value": 58.4, "unit": "%"},
      {"measurement": "viability, T/C", "setting": "second compound 0.01 µM, first compound 0.3 µM", "value": 30.9, "unit": "%"},
      {"measurement": "viability, T/C", "setting": "second compound 0.0316 µM, first compound 0.000949 µM", "value": 92.7, "unit": "%"},
      {"measurement": "viability, T/C", "setting": "second compound 0.0316 µM, first compound 0.003 µM", "value": 88.1, "unit": "%"},
      {"measurement": "viability, T/C", "setting": "second compound 0.0316 µM, first compound 0.00949 µM", "value": 79.4, "unit": "%"},
      {"measurement": "viability, T/C", "setting": "second compound 0.0316 µM, first compound 0.03 µM", "value": 75.8, "unit": "%"},
      {"measurement": "viability, T/C", "setting": "second compound 0.0316 µM, first compound 0.0949 µM", "value": 60.9, "unit": "%"},
      {"measurement": "viability, T/C", "setting": "second compound 0.0316 µM, first compound 0.3 µM", "value": 25.6, "unit": "%"},
      {"measurement": "viability, T/C", "setting": "second compound 0.1 µM, first compound 0.000949 µM", "value": 94.8, "unit": "%"},
      {"measurement": "viability, T/C", "setting": "second compound 0.1 µM, first compound 0.003 µM", "value": 88.6, "unit": "%"},
      {"measurement": "viability, T/C", "setting": "second compound 0.1 µM, first compound 0.00949 µM", "value": 79.3, "unit": "%"},
      {"measurement": "viability, T/C", "setting": "second compound 0.1 µM, first compound 0.03 µM", "value": 68.9, "unit": "%"},
      {"measurement": "viability, T/C", "setting": "second compound 0.1 µM, first compound 0.0949 µM", "value": 60, "unit": "%"},
      {"measurement": "viability, T/C", "setting": "second compound 0.1 µM, first compound 0.3 µM", "value": 32, "unit": "%"},
      {"measurement": "viability, T/C", "setting": "second compound 0.316 µM, first compound 0.000949 µM", "value": 96, "unit": "%"},
      {"measurement": "viability, T/C", "setting": "second compound 0.316 µM, first compound 0.003 µM", "value": 91.9, "unit": "%"},
      {"measurement": "viability, T/C", "setting": "second compound 0.316 µM, first compound 0.00949 µM", "value": 82.7, "unit": "%"},
      {"measurement": "viability, T/C", "setting": "second compound 0.316 µM, first compound 0.03 µM", "value": 80, "unit": "%"},
      {"measurement": "viability, T/C", "setting": "second compound 0.316 µM, first compound 0.0949 µM", "value": 63.6, "unit": "%"},
      {"measurement": "viability, T/C", "setting": "second compound 0.316 µM, first compound 0.3 µM", "value": 28.3, "unit": "%"},
      {"measurement": "viability, T/C", "setting": "second compound 1 µM, first compound 0.000949 µM", "value": 93.2, "unit": "%"},
      {"measurement": "viability, T/C", "setting": "second compound 1 µM, first compound 0.003 µM", "value": 93.4, "unit": "%"},
      {"measurement": "viability, T/C", "setting": "second compound 1 µM, first compound 0.00949 µM", "value": 85.1, "unit": "%"},
      {"measurement": "viability, T/C", "setting": "second compound 1 µM, first compound 0.03 µM", "value": 85.3, "unit": "%"},
      {"measurement": "viability, T/C", "setting": "second compound 1 µM, first compound 0.0949 µM", "value": 62.4, "unit": "%"},
      {"measurement": "viability, T/C", "setting": "second compound 1 µM, first compound 0.3 µM", "value": 34.9, "unit": "%"}
    ]}
  ]
}
